The values that follow come from the METLIN SMRT retention time set (Domingo-Almenara et al. 2019).

Each structure is given as a SMILES string.

The data set is described as follows: gradient 5% acetonitrile 3 min, to 50% in 2 min, to 85% in 15 min, held 3 min, 100 µL/min. The note with it: column: Zorbax Extend-C18 2.1 x 50 mm; eluents: water / acetonitrile, 0.1% formic acid. A digest of the protocol:
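Pure standards were run in mixtures of ~100 molecules by HPLC coupled to a quadrupole time-of-flight mass spectrometer. The column was a Zorbax Extend-C18 (2.1 × 50 mm, 1.8 μm) at 100 μL/min, with water and acetonitrile each containing 0.1% formic acid, in positive and negative ionization mode. Dead and dwell volumes were 40 μL and 900 μL. Retention time was taken from computationally picked adduct peaks, each manually inspected, with data collected over 3 months.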
For `Cc1cc(C)c2[nH]c3c(c(=O)c2c1)CN(CC(=O)NCc1ccc(F)cc1)CC3`, the RP-LC retention time stood at 620 s.
`CCn1ccc(C(=O)N2[C@H]3CC[C@@H]2c2cnc(C)nc2C3)n1` gave an RP-LC retention time of 610 s.
Regarding `COc1ccc(-c2c(C)noc2NC(C)=O)cc1S(=O)(=O)N1CC=C(c2ccccc2)CC1`, the RP-LC retention time amounted to 879 s.
In turn, `CCN1CCN(CC(=O)N2N=C(c3cccs3)CC2c2ccc(F)cc2)C(=O)C1=O` (stereo not drawn) returned an RP-LC retention time of 703 s.
For `O=C(CC(=O)Nc1ccccc1F)Nc1ccc2nc3n(c(=O)c2c1)CCCCC3` the value was 722 s.
Then `CCCCn1cc(S(=O)(=O)NCc2cccc(Cl)c2)c2cccnc21`, with 1020 s; and `O=C(c1cccc2[nH]ccc12)N1CCCC(c2n[nH]c(C3CC3)n2)C1` (stereo not drawn), with 606 s.
Then `CNC(=O)c1ccc2c(c1)CCCN2C(=O)c1cccc(Cl)c1`, with 746 s; and `COc1ccc(Cl)cc1S(=O)(=O)NCCc1cn(C)c2ncccc12`, with 764 s.
Compound `CCCN(CC1CCOC1)C(=O)Nc1ccc(C)cc1` (stereo not drawn) displayed an RP-LC retention time of 764 s.
Then `O=C(c1cccnc1N1CCNC(c2ccccc2)C1)N1CCN(c2ncccn2)CC1` (stereo not drawn), with 604 s.
In turn, `CC(C)NC(=O)Nc1cccnc1N1CCOCC1` returned an RP-LC retention time of 863 s.
Then `Nc1nc2ccc(Cl)cc2n2c(-c3ccccc3)nnc12`, with 867 s; and `CC(NC(=O)C1CCCN(c2ccc(=O)n(-c3cccc(F)c3)n2)C1)c1ccccc1` (stereo not drawn), with 868 s.
Turning to `Cc1ccc(-n2c(N3CCCC(C(=O)NCc4ccc(Cl)cc4)C3)nc3ccsc3c2=O)cc1` (stereo not drawn), the RP-LC retention time amounted to 956 s.
On to `Cc1cccc(OCC(=O)Nc2nnc(C3CC(=O)N(c4ccccc4)C3)o2)c1C` (stereo not drawn), for which the RP-LC retention time amounted to 726 s.
For `O=C(c1ccsc1)N1CCC[C@H]1c1nc(C2CCOCC2)n[nH]1` the value was 592 s.
For `Cc1ccc2c(c1)N(C(=O)Cn1c(=O)cc(C(=O)N3CCCCC3)c3ccccc31)CCO2` the value was 1010 s; for `O=C(CCCc1nc(-c2ccccc2)no1)Nc1nc(-c2ccccc2)cs1`, 1080 s.
`O=C(Cn1c(=O)nc(-c2ccccc2)c2cc(Cl)ccc21)N1CCN(c2ccccn2)CC1` registered an RP-LC retention time of 646 s.
Then `Cc1ccc(C)c(N2CCN(C(=O)c3cn4cc(C)ccc4n3)CC2)c1`, with 797 s; and `COc1ccc2[nH]c3c(c2c1)CCN(C(=O)CC(C)C)C31C(=O)N(C)c2ccccc21` (stereo not drawn), with 888 s.
For `O=C(NCCC1CCN(C(=O)Nc2cc(F)ccc2F)CC1)c1ccsc1` the value was 737 s; for `CCOCCCNC(=O)C1CCCN(c2nccnc2Oc2ccc(C)cc2)C1` (stereo not drawn), 926 s; for `COC(=O)c1ccc(NC(=O)Cn2cnc3c(sc4nc(-c5ccccc5)ccc43)c2=O)cc1`, 985 s.
Compound `Cc1ccc(C)c2sc(OC3CCN(C(=O)c4ccc(S(C)(=O)=O)cc4)CC3)nc12` registered an RP-LC retention time of 1000 s.
Then `Cc1ccc(C)c(NC(=O)C2CCCN2S(=O)(=O)c2ccc3c(c2)CCCC(=O)N3)c1` (stereo not drawn), with 810 s; and `Cc1nc(-c2csc(S(=O)(=O)N3CCC(C(=O)NCc4cccnc4)CC3)c2)no1`, with 618 s; and `Cc1ccc(CNC(=O)C2CCN(S(=O)(=O)c3cc(C(=O)N4CCCC4)n(C)c3)CC2)cc1`, with 872 s.
In turn, `CC(C)Cn1c(=O)c(N2CCN(C(=O)CCCc3ccccc3)CC2)nc2ccncc21` displayed an RP-LC retention time of 742 s.
The compound `CCCn1c2ccccc2c2nnc(SC(CC)C(=O)Nc3nc(-c4ccccc4)cs3)nc21` (stereo not drawn) yielded an RP-LC retention time of 1230 s.
For `C/C(=C\c1csc(C)n1)C1C[C@@H]2O[C@@H]2CCC[C@H](C)[C@H](O)[C@@H](C)C(=O)C(C)(C)[C@@H](O)CC(=O)O1` (stereo partly drawn) the value was 874 s; for `COc1ccc(S(=O)(=O)N2CCC(c3cc4n(n3)CCCN(C)C4=O)CC2)cc1`, 720 s.
For `COC[C@@H]1CN(S(=O)(=O)Cc2ccccc2)C[C@H]1c1ccccn1` the value was 693 s.
Consider `Cc1cccc(OCCCC(=O)Nc2nc(-c3ccc(Br)cc3)cs2)c1`, for which the RP-LC retention time amounted to 1260 s.
For `CCC(=O)N1CCc2cc(C(=O)NCc3ccc4c(c3)OCO4)ccc21` the value was 761 s; for `CC(C)Cn1cc(CCNC(=O)Nc2ccc(F)cc2)c2cccnc21`, 812 s.
The compound `Cc1cc2c(=O)n(CC(=O)NCc3ccc(F)cc3Cl)ccc2s1` returned an RP-LC retention time of 814 s.
For `Cn1cc(C2=CCN(S(=O)(=O)c3cccc(F)c3)CC2)c2cccnc21` the value was 969 s; for `CCOC(=O)N1CCN(S(=O)(=O)c2ccc(OCC)cc2OCC)CC1`, 858 s; for `Cc1ccc(N2CCN(Cc3nc4nc(C)cc(N5CCCC5)n4n3)CC2)cc1`, 639 s.
For `COc1ccc(-c2nc(NCCC(C)C)c3ccccc3n2)cc1` the value was 844 s; for `CCCCC(=O)N1CCc2c(c(C(=O)NCc3ccc4c(c3)OCO4)nn2C)C1`, 767 s.
For `CN(C)C(=O)c1ccc2c(c1)nc(CN1CCN(C(=O)c3cccs3)CC1)n2C` the value was 588 s.
Compound `Clc1ccccc1CSc1nnc(-c2ccc(Br)cc2)o1` displayed an RP-LC retention time of 1400 s.
For the compound `COc1ccccc1-c1noc(Cn2c(=O)n(CCc3ccccc3)c(=O)c3sccc32)n1`, the RP-LC retention time is 1030 s.
Then `COC(=O)c1c(C)[nH]c(C(=O)N2CCC(CC(=O)NCCN3CCCCC3)CC2)c1C`, with 584 s; and `CN(CCc1noc(-c2ccc(C(=O)N3CCCC3)cc2)n1)C(=O)c1c(F)cccc1F`, with 784 s.
For `Cc1cnc(C(=O)N2CC[C@H](n3c(=O)n(C)c4cccnc43)C2)cn1` the value was 647 s.
The compound `COc1ccc(NC(=O)N2CCC(n3cnc4cc(F)ccc4c3=O)CC2)c(OC)c1` showed an RP-LC retention time of 732 s.
For `Cc1nc(-c2csc(S(=O)(=O)N3CCCC(C(=O)Nc4cccc(C#N)c4)C3)c2)no1` (stereo not drawn) the value was 930 s; for `Fc1ccc(OCc2nnc3sc(-c4ccc(Cl)cc4)nn23)cc1`, 1030 s; for `CC(=O)N1CCc2cc(C)c(S(=O)(=O)NC(C)C)cc21`, 740 s.
In turn, `CCOC(=O)C(C#N)C(=N)C1C(=O)OC2CCCCC21` (stereo not drawn) registered an RP-LC retention time of 839 s.
For `O=C(CN1C(=O)CCCc2cc(S(=O)(=O)N3CCCCCC3)ccc21)N1CCc2ccccc2C1` the value was 974 s.
The compound `COc1cc(OC)c(NC(=O)Cn2ccc3sccc3c2=O)cc1Cl` yielded an RP-LC retention time of 775 s.
For `CCOc1ccc(N2C=C(C#N)S(=O)(=O)c3ccc(Cl)cc32)cc1` the value was 1040 s; for `COC(=O)Nc1ccc(S(=O)(=O)Nc2nc(C)cc(C)n2)cc1`, 599 s; for `Cc1ccc(S(=O)(=O)N2CCC3(CC2)NCCN=C3NCc2ccc(F)cc2)cc1`, 709 s.
In turn, `O=C1CN(C(=O)Cc2ccccc2Cl)C2(CCCC2)CN1` returned an RP-LC retention time of 727 s.
Regarding `CC(=O)N1CCc2cc(CNC(=O)c3ccnn3C)ccc21`, the RP-LC retention time was determined as 622 s.
For `O=C(CC1CCCN(c2cnn(CC3CC3)c(=O)c2)C1)NC1CC1` (stereo not drawn) the value was 651 s; for `Cc1nc(-c2cccs2)c(CC(=O)N2CCN(c3ccccn3)CC2)s1`, 607 s; for `O=C(NC1CCN(c2ncnc3c2CCC3)C1)c1ccsc1` (stereo not drawn), 580 s.
Turning to `COc1cc(OC)cc(-c2nnc(Cc3nc(-c4ccccc4F)no3)o2)c1`, the RP-LC retention time stood at 907 s.
For `COc1cn(CC(=O)Nc2ccc(C)c(Cl)c2)c(CN2CCN(C(C)=O)CC2)cc1=O` the value was 595 s.
For `COc1cccc(Cc2nc(CCS(=O)(=O)c3ccc(F)cc3)no2)c1` the value was 904 s.
`CC(C)CC(=O)N1c2nc(-c3ccccc3)nn2C2(CCCCC2)[C@@H]2CCCC[C@@H]21` registered an RP-LC retention time of 674 s.
For the compound `Cc1cc2nn(CC(=O)NCc3ccccc3)c(=O)n2c(-c2ccccc2)n1`, the RP-LC retention time was 753 s.
Then `Cc1ccn2cc(-c3ccc(NS(=O)(=O)c4ccc(C)c([N+](=O)[O-])c4)cc3)nc2n1`, with 685 s; and `CCCn1c(=O)c2sc(N3CCCC3)nc2n(CC(=O)Nc2cc(F)cc(F)c2)c1=O`, with 902 s.
As for `O=S(=O)(c1cccn2c(SCc3cccc(F)c3)nnc12)N1CCc2ccccc2C1`, the RP-LC retention time came to 959 s.
Consider `Cc1noc(-c2nn(C)c3c2CN(C(=O)Nc2ccc(C(F)(F)F)cc2)CC3)n1`, for which the RP-LC retention time is 847 s.
Then `Cc1[nH]c(C)c(S(=O)(=O)N2CCC(C(=O)N3CCc4ccccc43)CC2)c1C(=O)N1CCCC1`, with 716 s; and `COC(=O)Cc1c(C(=O)OC)nnn1-c1ccc(OC)cc1`, with 862 s.
Then `CCOc1cccc(-c2noc(Cn3ncn4nc(-c5ccc(C)cc5C)cc4c3=O)n2)c1`, with 1330 s; and `O=C(NCCn1nc(-c2cccs2)ccc1=O)c1ccc(=O)n(Cc2ccccc2)n1`, with 678 s; and `COc1ccc(S(=O)(=O)N2CCC(n3cnnc3C)CC2)cc1Cl`, with 694 s.
